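Where inhibition never reached the appropriate level, the endpoint shown equals the highest concentration tested. Otherwise, values were interpolated linearly from a five-concentration, 48-hour dose response in 96-well plates. TGI: concentration producing complete growth inhibition.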 Bounds are passed on as bounds.

Some test systems named below: A549 NSCLC; HCT-15 colon; IGROV1 ovarian; MCF7 breast; NCI-H226 lung; SF-539 CNS; SK-MEL-5 melanoma; SR leukemia; TK-10 renal; UACC-257 melanoma.
Holding throughout (assay): NCI tumour cell line growth inhibition, 48 h

On to `C[C@]12CC[C@H]3[C@@H](CC=C4C[C@@H](N5CCCC5)CC[C@@]43C)[C@@H]1C[C@H](N1CCCCC1)[C@@H]2O`, for which the TGI in the assay on A549 NSCLC, with HCT-15 colon, in the assay with IGROV1 ovarian, in the assay on MCF7 breast, in the assay on NCI-H226 lung and in the assay on SF-539 CNS was above 100 µM each time. The TGI is above 100 µM in the assay on SK-MEL-5 melanoma, 35.7 µM with SR leukemia, above 100 µM with TK-10 renal and 83.8 µM in the assay on UACC-257 melanoma.
Turning to `CC(=O)CC1(CBr)Nc2ccc([N+](=O)[O-])cc2NC1=O` (stereo not given), the TGI in the assay on A549 NSCLC, with HCT-15 colon, in the assay with IGROV1 ovarian, with MCF7 breast, in the assay with NCI-H226 lung and in the assay on SF-539 CNS was above 100 µM throughout. Also, the TGI in the assay with SK-MEL-5 melanoma, in the assay on SR leukemia, in the assay on TK-10 renal and with UACC-257 melanoma was above 100 µM each time.
Turning to `C=C(Br)CN=CN(C)C`, the TGI with A549 NSCLC, in the assay with HCT-15 colon, with IGROV1 ovarian, in the assay on MCF7 breast, in the assay with NCI-H226 lung and in the assay on SF-539 CNS was above 100 µM each time. Also, the TGI in the assay on SK-MEL-5 melanoma, with SR leukemia, in the assay on TK-10 renal and in the assay with UACC-257 melanoma was above 100 µM in each case.
Regarding `O=C(O)c1c(CC(Cc2ccc3c(c2)CCC3)C(=O)O)ccc2c1CCC2` (stereo not given), the TGI in the assay on A549 NSCLC, with HCT-15 colon, in the assay with IGROV1 ovarian, in the assay on MCF7 breast, in the assay with NCI-H226 lung and in the assay with SF-539 CNS was above 100 µM in each case. Besides, the TGI with SK-MEL-5 melanoma, in the assay with SR leukemia, in the assay on TK-10 renal and with UACC-257 melanoma was above 100 µM in each case.
For `C=C1c2nc3ccccc3n2C=C(c2ccc(C)cc2)N1c1ccc(OC)cc1`, the TGI in the assay with A549 NSCLC, in the assay on HCT-15 colon, with IGROV1 ovarian, in the assay with MCF7 breast, in the assay on NCI-H226 lung and with SF-539 CNS was above 100 µM throughout. Also, the TGI is above 100 µM with SK-MEL-5 melanoma, 19.8 µM in the assay on SR leukemia, above 100 µM in the assay on TK-10 renal and above 100 µM in the assay on UACC-257 melanoma.
Turning to `COc1cc(CCNC2=CC(=O)c3nc[nH]c3C2=O)ccc1O`, the TGI with A549 NSCLC is 68.3 µM; in the assay on HCT-15 colon it was above 100 µM; in the assay with IGROV1 ovarian it was 52.8 µM; in the assay with MCF7 breast, 33.5 µM; with NCI-H226 lung, 86.8 µM; in the assay with SF-539 CNS, above 100 µM. Further, the TGI was found to be 27.6 µM in the assay with SK-MEL-5 melanoma, 98.4 µM in the assay on SR leukemia, 87.5 µM in the assay on TK-10 renal and 34.8 µM in the assay on UACC-257 melanoma.
With `O=C1Nc2ccccc2/C1=C\c1c(Cl)n(-c2ccccc2)c2ccccc12`, the TGI turned out to be 25 µM in the assay with A549 NSCLC; 18.1 µM with HCT-15 colon; 9.64 µM in the assay with IGROV1 ovarian; 88 µM with MCF7 breast; 12.2 µM in the assay with NCI-H226 lung; 18.4 µM in the assay on SF-539 CNS. The TGI in the assay on SK-MEL-5 melanoma was 17.5 µM; with SR leukemia, above 100 µM; with TK-10 renal it was 27 µM; in the assay with UACC-257 melanoma it was 36.5 µM.
With `C[n+]1cccc2ccc3cccnc3c21`, the TGI was above 100 µM in the assay on A549 NSCLC; above 100 µM in the assay with HCT-15 colon; above 100 µM in the assay on IGROV1 ovarian; above 100 µM in the assay with MCF7 breast; 70 µM in the assay on NCI-H226 lung; above 100 µM with SF-539 CNS. For the same compound, the TGI with SK-MEL-5 melanoma was 42 µM; in the assay with SR leukemia it was above 100 µM; in the assay on TK-10 renal, above 100 µM; in the assay on UACC-257 melanoma, above 100 µM.
Consider `N#Cc1c(NC(=S)Nc2ccc(Cl)cc2)sc2c1CCN(N1CCc3c(sc(NC(=S)Nc4ccc(Cl)cc4)c3C#N)C1)C2`, for which the TGI in the assay on A549 NSCLC was above 100 µM; with HCT-15 colon, above 100 µM; with IGROV1 ovarian it was 47.8 µM; in the assay on MCF7 breast, above 100 µM; in the assay with NCI-H226 lung it was 34.4 µM; in the assay with SF-539 CNS, 34.2 µM. Further, the TGI in the assay with SK-MEL-5 melanoma is 22.3 µM; in the assay on SR leukemia, above 100 µM; with TK-10 renal it was above 100 µM; in the assay with UACC-257 melanoma, above 100 µM.
On to `COc1cc2c(cc1OC)C(=O)N(c1ccc(OCCN3CCCC3)cc1)C2`, for which the TGI with A549 NSCLC, in the assay with HCT-15 colon, in the assay on IGROV1 ovarian, in the assay on MCF7 breast, with NCI-H226 lung and with SF-539 CNS was above 100 µM in each case. The TGI with SK-MEL-5 melanoma, in the assay on SR leukemia, in the assay on TK-10 renal and in the assay with UACC-257 melanoma was above 100 µM each time.
In the case of `C/C(=C1\N=C(c2ccccc2)OC1=O)c1ccccc1`, the TGI in the assay on A549 NSCLC, in the assay with HCT-15 colon, with IGROV1 ovarian, in the assay with MCF7 breast, with NCI-H226 lung and in the assay on SF-539 CNS was above 100 µM each time. For the same compound, the TGI in the assay on SK-MEL-5 melanoma, with SR leukemia, in the assay on TK-10 renal and in the assay with UACC-257 melanoma was above 100 µM each time.

For the origin of these results see PubChem BioAssay (NCI).
